The results in this text go back to patent US10669242B2 (priority 2016, dated 2020).

The structures appear in SMILES notation.

As usually defined, the IC50 is the concentration that inhibits the measured activity by half.

T1 sequence (P18177 1-543): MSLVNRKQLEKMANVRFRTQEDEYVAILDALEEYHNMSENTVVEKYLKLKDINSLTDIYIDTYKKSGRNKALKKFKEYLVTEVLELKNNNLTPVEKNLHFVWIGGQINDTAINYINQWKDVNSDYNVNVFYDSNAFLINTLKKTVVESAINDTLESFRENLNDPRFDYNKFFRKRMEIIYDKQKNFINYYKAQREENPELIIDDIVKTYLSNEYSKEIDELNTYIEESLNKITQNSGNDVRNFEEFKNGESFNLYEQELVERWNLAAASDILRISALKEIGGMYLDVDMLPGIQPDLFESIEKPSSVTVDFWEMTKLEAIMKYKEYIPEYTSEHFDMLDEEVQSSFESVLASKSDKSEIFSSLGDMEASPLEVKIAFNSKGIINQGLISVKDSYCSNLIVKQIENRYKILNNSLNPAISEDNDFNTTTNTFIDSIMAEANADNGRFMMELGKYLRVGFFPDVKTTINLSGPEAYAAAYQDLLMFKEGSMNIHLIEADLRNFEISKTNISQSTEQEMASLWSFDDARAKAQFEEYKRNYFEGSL

The experiment concerns the target T1, recombinant glucosyltransferase domain of C. difficile Toxin B/TcdB (Clostridioides difficile, UniProt P18177).
T1 construct: 6-His (C); purchased R&D Systems 6246-GT
In words: biochemical.
As for `O=C(Nc1ccccn1)c1ccc(CN2C(=O)c3ccc(F)cc3NC(=O)[C@H]2Cc2ccc(Cl)c(Cl)c2)cc1` [Example 4q, (R)-4-((3-(3,4-dichlorobenzyl)-8-fluoro-2,5-dioxo-2,3-dihydro-1H-benzo[e][1,4]diazepin-4(5H)-yl)methyl)-N-(pyridin-2-yl)benzamide], the half-inhibitory concentration (IC50) is 100 to 999 nM.
With `Cc1cnc2c(c1)CCN2C(=O)c1ccc(CN2C(=O)c3ccc(Cl)cc3NC(=O)[C@H]2Cc2ccccn2)cc1` [Example 4af, (R)-8-chloro-4-(4-(5-methyl-2,3-dihydro-1H-pyrrolo[2,3-b]pyridine-1-carbonyl)benzyl)-3-(pyridin-2-ylmethyl)-3,4-dihydro-1H-benzo[e][1,4]diazepine-2,5-dione] the figure was under 100 nM.
Regarding `Cn1ccnc1C(=O)Nc1ccc(CN2C(=O)c3ccc(Cl)cc3NC(=O)[C@H]2Cc2ccccn2)cc1` [Example 27i], the IC50 lay in the range of 100 to 999 nM.
Regarding `O=C(Nc1cc(Cl)ccn1)c1ccc(CN2C(=O)c3ccc(Cl)cc3NC(=O)[C@H]2Cc2cccnc2)cc1` [Example 4r, (R)-4-((8-chloro-2,5-dioxo-3-(pyridin-3-ylmethyl)-2,3-dihydro-1H-benzo[e][1,4]diazepin-4(5H)-yl)methyl)-N-(4-chloropyridin-2-yl)benzamide], the half-inhibitory concentration (IC50) is under 100 nM.
With `O=C(Nc1ccccn1)c1ccc(CN2C(=O)c3ccc(Cl)cc3NC(=O)[C@H]2Cc2ccccn2)cc1F` [Example 6b, (R)-4-((8-chloro-2,5-dioxo-3-(pyridin-2-ylmethyl)-2,3-dihydro-1H-benzo[e][1,4]diazepin-4(5H)-yl)methyl)-2-fluoro-N-(pyridin-2-yl)benzamide], the IC50 was under 100 nM.
As for `O=C(O)c1ccc(CN2C(=O)c3ccc(Cl)cc3NC(=O)[C@H]2Cc2ccc(Cl)c(Cl)c2)cc1` [Example 1d], the figure is 1000 to 10000 nM; as for `Cc1ccc(NC(=O)c2ccc(CN3C(=O)c4ccc(NC(=O)C(C)C)cc4NC(=O)[C@H]3C)cc2)nc1` [Example 18b, (R)-4-((8-isobutyramido-3-methyl-2,5-dioxo-2,3-dihydro-1H-benzo[e][1,4]diazepin-4(5H)-yl)methyl)-N-(5-methylpyridin-2-yl)benzamide], 10000 to 35000 nM.
Consider `Cc1ccnc(C(=O)Nc2ccc(CN3C(=O)c4ccc(Cl)cc4NC(=O)[C@H]3Cc3ccccn3)cc2)c1` [Example 26c], for which the 50% inhibitory concentration (IC50) is under 100 nM.
As for `O=C(Nc1ccc(CN2C(=O)c3ccc(Cl)cc3NC(=O)[C@H]2Cc2ccccn2)cc1)c1ccc(Cl)cn1` [Example 26i], the figure is under 100 nM; as for `Cc1cc(CN2C(=O)c3ccc(Cl)cc3NC(=O)[C@H]2Cc2ccccn2)cc(C)c1N` [Example 24a, (R)-4-(4-Amino-3,5-dimethylbenzyl)-8-chloro-3-(pyridin-2-ylmethyl)-3,4-dihydro-1H-benzo[e][1,4]diazepine-2,5-dione], 10000 to 35000 nM.
With `O=C(Nc1ccc(CN2C(=O)c3ccc(Cl)cc3NC(=O)[C@H]2Cc2ccccn2)cc1)c1nccs1` [Example 27e] the figure was 100 to 999 nM.
As for `Cc1cnc2c(c1)CCN2C(=O)c1ccc(CN2C(=O)c3ccc(Cl)cc3NC(=O)[C@H]2Cc2ccccn2)cc1F` [Example 6f, (R)-8-chloro-4-(3-fluoro-4-(5-methyl-2,3-dihydro-1H-pyrrolo[2,3-b]pyridine-1-carbonyl)benzyl)-3-(pyridin-2-ylmethyl)-3,4-dihydro-1H-benzo[e][1,4]diazepine-2,5-dione], the IC50 was under 100 nM.
In the case of `O=C(O)c1ccc(CN2C(=O)c3ccc(Cl)cc3NC(=O)[C@H]2Cc2ccccn2)cc1NC(=O)C1CCCCC1` [Example 22c], the 50% inhibitory concentration (IC50) fell in the range of 100 to 999 nM.
On to `Cn1cc(-c2cc(CN3C(=O)c4ccc(Cl)cc4NC(=O)[C@H]3Cc3ccccn3)ccc2C(=O)O)cn1` [Example 8u, (R)-4-((8-chloro-2,5-dioxo-3-(pyridin-2-ylmethyl)-2,3-dihydro-1H-benzo[e][1,4]diazepin-4(5H)-yl)methyl)-2-(1-methyl-1H-pyrazol-4-yl)benzoic acid], for which the IC50 lay in the range of 1000 to 10000 nM.
Take `Cc1cnc(NC(=O)[C@H]2CC[C@H](CN3C(=O)c4ccc(Cl)cc4NC(=O)[C@H]3Cc3ccccn3)CC2)nc1` [Example 5ad, (1R,4r)-4-(((R)-8-chloro-2,5-dioxo-3-(pyridin-2-ylmethyl)-2,3-dihydro-1H-benzo[e][1,4]diazepin-4(5H)-yl)methyl)-N-(5-methylpyrimidin-2-yl)cyclohexanecarboxamide]: the IC50 was under 100 nM.
With `O=C(NO)c1ccc(CN2C(=O)c3ccc(Cl)cc3NC(=O)[C@H]2Cc2ccccn2)cc1` [Example 40a, (R)-4-((8-Chloro-2,5-dioxo-3-(pyridin-2-ylmethyl)-2,3-dihydro-1H-benzo[e][1,4]diazepin-4(5H)-yl)methyl)-N-hydroxybenzamide] the figure was under 100 nM.
As for `O=C(CO)Nc1cc(CN2C(=O)c3ccc(Cl)cc3NC(=O)[C@H]2Cc2ccccn2)ccc1C(=O)O` [Example 22o], the figure is 100 to 999 nM.
With `O=C(Nc1ccc(CN2C(=O)c3ccc(Cl)cc3NC(=O)[C@H]2Cc2ccccn2)cc1)c1cnccn1` [Example 27d] the figure was 100 to 999 nM; with `CCc1ccc(NC(=O)c2ccc(CN3C(=O)c4ccc(Cl)cc4NC(=O)[C@H]3Cc3ccccn3)cc2)nc1` [Example 4ap, (R)-4-((8-chloro-2,5-dioxo-3-(pyridin-2-ylmethyl)-2,3-dihydro-1H-benzo[e][1,4]diazepin-4(5H)-yl)methyl)-N-(5-ethylpyridin-2-yl)benzamide], under 100 nM.
Turning to `O=C1Nc2cc(Cl)ccc2C(=O)N(Cc2ccc(C(=O)N3CCc4cccnc43)c(F)c2)[C@@H]1Cc1ccccn1` [Example 6e, (R)-8-chloro-4-(4-(2,3-dihydro-1H-pyrrolo[2,3-b]pyridine-1-carbonyl)-3-fluorobenzyl)-3-(pyridin-2-ylmethyl)-3,4-dihydro-1H-benzo[e][1,4]diazepine-2,5-dione], the concentration for half-maximal inhibition (IC50) lay within 100 to 999 nM.
As for `Cn1cnc(C(=O)c2ccc(CN3C(=O)c4ccc(Cl)cc4NC(=O)[C@H]3Cc3ccccn3)cc2)c1` [Example 31d], the figure is 100 to 999 nM; as for `O=C(Nc1ccc(CN2C(=O)c3ccc(Cl)cc3NC(=O)[C@H]2Cc2ccccn2)cc1)c1ncc[nH]1` [Example 27h], under 100 nM; as for `O=C1Nc2cc(Cl)ccc2C(=O)N(CC2CCN(C(=O)Nc3ccccn3)CC2)[C@@H]1Cc1ccccn1` [Example 42a, (R)-4-((8-Chloro-2,5-dioxo-3-(pyridin-2-ylmethyl)-2,3-dihydro-1H-benzo[e][1,4]diazepin-4(5H)-yl)methyl)-N-(pyridin-2-yl)piperidine-1-carboxamide], 1000 to 10000 nM.
With `Cc1cccnc1C(=O)Nc1ccc(CN2C(=O)c3ccc(Cl)cc3NC(=O)[C@H]2Cc2ccccn2)cc1` [Example 26e] the figure was 1000 to 10000 nM.
With `Cc1ccc(NC(=O)[C@H]2CC[C@H](CN3C(=O)c4ccc(Cl)cc4NC(=O)[C@H]3Cc3ccccn3)CC2)nc1` [Example 4bx, (1R,4r)-4-(((R)-8-chloro-2,5-dioxo-3-(pyridin-2-ylmethyl)-2,3-dihydro-1H-benzo[e][1,4]diazepin-4(5H)-yl)methyl)-N-(5-methylpyridin-2-yl)cyclohexanecarboxamide] the figure was under 100 nM.
Take `C[C@@H]1C(=O)Nc2cc(Cl)ccc2C(=O)N1Cc1ccc(C(=O)Nc2ccc(-c3ccccc3)cn2)cc1` [Example 4bc, (R)-4-((8-chloro-3-methyl-2,5-dioxo-2,3-dihydro-1H-benzo[e][1,4]diazepin-4(5H)-yl)methyl)-N-(5-phenylpyridin-2-yl)benzamide]: the concentration for half-maximal inhibition (IC50) was in the range of 100 to 999 nM.
With `O=C(Nc1cnccn1)c1ccc(CN2C(=O)c3ccc(Cl)cc3NC(=O)[C@H]2Cc2cccnc2)cc1` [Example 5c, (R)-4-((8-chloro-2,5-dioxo-3-(pyridin-3-ylmethyl)-2,3-dihydro-1H-benzo[e][1,4]diazepin-4(5H)-yl)methyl)-N-(pyrazin-2-yl)benzamide] the figure was under 100 nM; with `CN(C)CCC(=O)Nc1cc(CN2C(=O)c3ccc(Cl)cc3NC(=O)[C@H]2Cc2ccccn2)ccc1C(=O)O` [Example 22k], 100 to 999 nM; with `O=C1Nc2cc(Cl)ccc2C(=O)N(Cc2ccc(C(O)c3ccccn3)cc2)[C@@H]1Cc1ccccn1` (stereo partly drawn) [Example 51a, (3R)-8-Chloro-4-(4-(hydroxy(pyridin-2-yl)methyl)benzyl)-3-(pyridin-2-ylmethyl)-3,4-dihydro-1H-benzo[e][1,4]diazepine-2,5-dione], 1000 to 10000 nM.
Turning to `C[C@@H]1C(=O)Nc2cc(Cl)ccc2C(=O)N1Cc1ccc(C(=O)N2CCc3cccnc32)cc1` [Example 4y, (R)-8-chloro-4-(4-(2,3-dihydro-1H-pyrrolo[2,3-b]pyridine-1-carbonyl)benzyl)-3-methyl-3,4-dihydro-1H-benzo[e][1,4]diazepine-2,5-dione], the IC50 is under 100 nM.
For `CC(C)c1ccc(NC(=O)c2ccc(CN3C(=O)c4ccc(Cl)cc4NC(=O)[C@H]3C)cc2)nc1` [Example 4az, (R)-4-((8-chloro-3-methyl-2,5-dioxo-2,3-dihydro-1H-benzo[e][1,4]diazepin-4(5H)-yl)methyl)-N-(5-isopropylpyridin-2-yl)benzamide], the 50% inhibitory concentration (IC50) was 100 to 999 nM.
With `O=C(Nc1ccccn1)c1ccc(CN2C(=O)c3ccc(Cl)cc3NC(=O)[C@H]2c2ccccc2)cc1` [Example 35c] the figure was 1000 to 10000 nM; with `O=C(Nc1ccc(C(F)(F)F)cn1)c1ccc(CN2C(=O)c3ccc(Cl)cc3NC(=O)[C@H]2Cc2ccccn2)cc1` [Example 5q, (R)-4-((8-chloro-2,5-dioxo-3-(pyridin-2-ylmethyl)-2,3-dihydro-1H-benzo[e][1,4]diazepin-4(5H)-yl)methyl)-N-(5-(trifluoromethyl)pyridin-2-yl)benzamide], under 100 nM.
With `O=C1Nc2cc(Cl)ccc2C(=O)N(C[C@H]2CC[C@H](C(=O)Nc3ccc(F)cn3)CC2)[C@@H]1Cc1ccccn1` [Example 4ca, (1R,4r)-4-(((R)-8-chloro-2,5-dioxo-3-(pyridin-2-ylmethyl)-2,3-dihydro-1H-benzo[e][1,4]diazepin-4(5H)-yl)methyl)-N-(5-fluoropyridin-2-yl)cyclohexanecarboxamide], the half-inhibitory concentration (IC50) was under 100 nM.
